Like-named read-outs stand apart in the source and are kept apart here.
Assays:
5-HT4C = 5-HT4C receptor binding assay; parameters: species or system human; settings: for % inhibition of control specific at 100 nM conc.: 100 nM compound
Description: (§1) 5-HT receptor binding assays were performed according to the method well known in the art. See for example Mulerhorn et al. J. Biol. Chem. 269 (1994) 12954-12962, Bonhaus et al. (1995) et al. J. Biol. Chem. 269 (1994) 12954-12962 herein incorporated by reference in its entirety. See also U.S. Pat. Nos. 5,126,363; 5,688,807; 5,786,157; and 5,869,691 herein incorporated by reference in their entirety.
(§2) Briefly, CHO cells expressing human 5-HT receptor subtypes, or membranes prepared therefrom, were incubated with a specific radioactive ligand for 60 minutes at 22° C. (0.5 nM of [^3H]-8-OH-DPAT for 5-HT1A receptors, 1.2 nM of [^3H]-LSD for 5-HT2B receptors). Incubations were performed in the presence or absence of one of the following diastereomers: 10 μM 8-OH-DPAT; 100 nM (3S,4R)-4-(2,3-dimethylphenyl)-3-hydroxypiperidine; 100 nM (3R,4S)-4-(2,3-dimethylphenyl)-3-hydroxypiperidine; 100 nM (3R,4R)-4-(2,3-dimethylphenyl)-3-hydroxypiperidine; 100 nM (3S,4S)-4-(2,3-dimethylphenyl)-3-hydroxypiperidine. Following incubation the cells or membranes were washed recovered and the radioactivity content of the filter used to determine specific receptor binding and inhibition by the essential pure diastereomers.

human 5-HT1A receptor = biological target: T1, human 5-HT1A receptor (Homo sapiens, UniProt P08908); assay: 5-HT1A receptor binding assay; settings: for inhibition at 0.1 µM: 100 nM compound, 0.5 nM [3H]-8-OH-DPAT, 60 minutes at 22° C., CHO cells, read-out: % inhibition of control specific at 100 nM conc.
T1 construct: expressed in transfected cells; host or cells: CHO cells
T1 sequence (P08908 1-422): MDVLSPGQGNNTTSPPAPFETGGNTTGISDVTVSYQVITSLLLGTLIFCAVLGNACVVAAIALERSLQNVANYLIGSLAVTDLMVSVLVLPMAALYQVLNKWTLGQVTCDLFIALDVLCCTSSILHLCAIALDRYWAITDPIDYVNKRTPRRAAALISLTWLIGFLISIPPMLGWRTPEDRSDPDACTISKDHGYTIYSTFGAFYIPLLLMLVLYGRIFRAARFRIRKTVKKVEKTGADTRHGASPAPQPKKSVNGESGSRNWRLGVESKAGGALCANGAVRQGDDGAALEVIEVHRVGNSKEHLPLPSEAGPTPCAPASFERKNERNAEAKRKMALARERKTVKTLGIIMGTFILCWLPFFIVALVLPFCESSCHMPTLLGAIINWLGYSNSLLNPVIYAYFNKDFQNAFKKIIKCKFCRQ
Description: as §1, §2

human 5-HT2B receptor = human 5-HT2B receptor (Homo sapiens, UniProt P41595); assay: 5-HT2B receptor binding assay; settings: for inhibition at 0.1 µM: 100 nM compound, 1.2 nM [3H]-LSD, 60 minutes at 22° C., CHO cells, read-out: % inhibition of control specific at 100 nM conc.
human 5-HT2B receptor, sequence (P41595 whole entry): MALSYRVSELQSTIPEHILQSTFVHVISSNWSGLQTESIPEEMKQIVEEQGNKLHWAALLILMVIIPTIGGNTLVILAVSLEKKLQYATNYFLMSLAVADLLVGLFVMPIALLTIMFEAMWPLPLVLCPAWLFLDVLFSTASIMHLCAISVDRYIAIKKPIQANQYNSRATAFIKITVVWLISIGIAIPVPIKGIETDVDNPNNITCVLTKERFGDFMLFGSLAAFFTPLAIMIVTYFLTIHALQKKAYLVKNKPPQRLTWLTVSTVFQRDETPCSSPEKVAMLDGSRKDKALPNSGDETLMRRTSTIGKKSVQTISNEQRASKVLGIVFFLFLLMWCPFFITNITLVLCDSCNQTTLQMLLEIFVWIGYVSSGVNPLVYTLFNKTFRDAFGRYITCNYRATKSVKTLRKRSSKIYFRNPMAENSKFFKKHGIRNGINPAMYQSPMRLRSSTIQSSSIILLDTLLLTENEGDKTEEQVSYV
Description: as §1, §2

NE uptake = NE uptake (Homo sapiens, UniProt P23975); assay: NE uptake binding assay; settings: for inhibition at 0.1 µM: 100 nM compound, read-out: % inhibition of control specific at 100 nM conc.
NE uptake, sequence (P23975 whole entry): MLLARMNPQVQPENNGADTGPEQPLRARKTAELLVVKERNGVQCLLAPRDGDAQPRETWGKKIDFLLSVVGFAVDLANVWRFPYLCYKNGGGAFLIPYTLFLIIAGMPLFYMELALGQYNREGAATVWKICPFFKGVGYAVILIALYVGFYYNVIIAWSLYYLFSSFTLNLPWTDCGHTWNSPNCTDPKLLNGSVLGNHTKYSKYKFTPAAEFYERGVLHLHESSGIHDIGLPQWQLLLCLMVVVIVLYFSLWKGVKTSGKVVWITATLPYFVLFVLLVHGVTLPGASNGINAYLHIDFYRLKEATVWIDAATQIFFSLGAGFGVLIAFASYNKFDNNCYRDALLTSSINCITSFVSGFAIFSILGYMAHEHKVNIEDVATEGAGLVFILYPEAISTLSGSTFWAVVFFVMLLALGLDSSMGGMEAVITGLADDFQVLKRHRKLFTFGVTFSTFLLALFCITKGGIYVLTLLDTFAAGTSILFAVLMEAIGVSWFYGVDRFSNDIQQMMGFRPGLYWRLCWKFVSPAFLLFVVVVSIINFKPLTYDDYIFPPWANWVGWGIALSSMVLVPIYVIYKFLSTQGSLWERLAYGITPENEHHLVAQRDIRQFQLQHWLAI

5-HT7 = biological target: T2, 5-HT7 (Homo sapiens, UniProt P34969); assay: 5-HT7 receptor binding assay; settings: for inhibition at 0.1 µM: 100 nM compound, read-out: % inhibition of control specific at 100 nM conc.
T2 construct: expressed in transfected cells; host or cells: CHO cells
T2 sequence (P34969 whole entry): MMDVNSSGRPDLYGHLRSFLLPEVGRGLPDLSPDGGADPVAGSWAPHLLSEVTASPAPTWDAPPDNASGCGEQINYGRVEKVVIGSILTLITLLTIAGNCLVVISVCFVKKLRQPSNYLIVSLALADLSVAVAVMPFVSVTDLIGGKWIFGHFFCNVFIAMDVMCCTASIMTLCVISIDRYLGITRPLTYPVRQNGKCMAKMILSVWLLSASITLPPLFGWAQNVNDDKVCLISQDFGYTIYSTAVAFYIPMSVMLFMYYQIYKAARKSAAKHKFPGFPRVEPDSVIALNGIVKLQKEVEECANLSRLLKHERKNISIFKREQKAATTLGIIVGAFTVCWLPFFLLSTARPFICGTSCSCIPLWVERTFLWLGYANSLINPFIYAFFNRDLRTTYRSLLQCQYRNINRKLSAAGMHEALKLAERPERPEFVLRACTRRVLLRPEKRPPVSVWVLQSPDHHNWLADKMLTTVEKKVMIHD

5-HT2c = 5-HT2c (Homo sapiens, UniProt P28335); assay: 5-HT2c receptor binding assay; settings: for inhibition at 0.1 µM: 100 nM compound, read-out: % inhibition of control specific at 100 nM conc.
5-HT2c, sequence (P28335 33-458): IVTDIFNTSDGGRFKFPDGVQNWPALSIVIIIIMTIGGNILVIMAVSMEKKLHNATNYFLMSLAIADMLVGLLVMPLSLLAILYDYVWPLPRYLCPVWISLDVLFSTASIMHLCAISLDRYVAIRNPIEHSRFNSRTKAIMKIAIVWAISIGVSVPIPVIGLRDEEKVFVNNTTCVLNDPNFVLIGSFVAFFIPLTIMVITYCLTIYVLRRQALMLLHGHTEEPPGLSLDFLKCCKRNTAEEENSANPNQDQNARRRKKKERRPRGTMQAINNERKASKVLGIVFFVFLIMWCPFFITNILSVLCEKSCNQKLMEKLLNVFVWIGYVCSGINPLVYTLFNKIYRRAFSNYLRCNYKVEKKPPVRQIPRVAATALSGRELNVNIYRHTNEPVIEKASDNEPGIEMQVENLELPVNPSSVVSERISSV

5-HT3 = 5-HT3 (Homo sapiens, UniProt P46098); assay: 5-HT3 receptor binding assay; settings: for inhibition at 0.1 µM: 100 nM compound, read-out: % inhibition of control specific at 100 nM conc.
5-HT3, sequence (P46098 24-478): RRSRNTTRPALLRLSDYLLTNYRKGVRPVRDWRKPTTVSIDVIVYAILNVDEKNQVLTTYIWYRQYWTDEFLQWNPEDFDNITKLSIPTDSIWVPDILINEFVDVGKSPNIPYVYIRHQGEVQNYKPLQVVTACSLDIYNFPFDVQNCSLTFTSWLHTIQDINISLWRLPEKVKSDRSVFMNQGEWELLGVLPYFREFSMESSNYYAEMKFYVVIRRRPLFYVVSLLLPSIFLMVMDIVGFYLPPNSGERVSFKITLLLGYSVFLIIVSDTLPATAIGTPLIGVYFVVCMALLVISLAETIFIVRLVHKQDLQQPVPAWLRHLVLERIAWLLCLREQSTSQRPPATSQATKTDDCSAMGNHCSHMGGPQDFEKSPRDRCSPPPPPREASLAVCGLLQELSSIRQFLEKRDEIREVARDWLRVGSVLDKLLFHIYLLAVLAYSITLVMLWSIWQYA

5-HT2 receptors [1] = settings: in vivo; Waldmeier; cited from earlier work
beta-noradrenoceptors = settings: in vitro; Waldmeier; cited from earlier work
5-HT2 receptors [2] = settings: Waldmeier, cited from earlier work
opiate receptors = settings: in vitro; Waldmeier; cited from earlier work
alpha1-noradrenoceptors = settings: in vitro; Waldmeier; cited from earlier work
[3] = system: muscarinic acetylcholine receptors; settings: in vitro; Waldmeier; cited from earlier work
[4] = system: 5-HT reuptake in the brain; settings: Delini-Stula et al.; cited from earlier work
[5] = system: 5-HT uptake processes in the periphery (blood platelets); settings: Delini-Stula et al.; cited from earlier work
alpha2-noradrenoceptors = settings: in vitro; Waldmeier; cited from earlier work
doparine receptors = settings: in vivo; Waldmeier; cited from earlier work
histamine H1 receptors = settings: in vitro; Waldmeier; cited from earlier work
GABAA receptors = settings: in vitro; Waldmeier; cited from earlier work
5-HT1 receptors = settings: Waldmeier, cited from earlier work
benzodiazepine receptors = settings: in vitro; Waldmeier; cited from earlier work

Row | SMILES | % inhibition of control specific at 100 nM conc. (5-HT4C) | inhibition of binding to 5-HT1A receptors (in words) (human 5-HT1A receptor) | inhibition at 0.1 µM (human 5-HT1A receptor) | inhibition at 0.1 µM (human 5-HT2B receptor) | inhibition at 0.1 µM (NE uptake) | inhibition at 0.1 µM (5-HT7) | inhibition of binding to 5-HT2c receptors (in words) (5-HT2c) | inhibition at 0.1 µM (5-HT2c) | inhibition at 0.1 µM (5-HT3) | inhibition of binding to Ne (Norepinephrine) uptake receptors (in words) (NE uptake) | inhibition of binding to 5-HT7 receptors (in words) (5-HT7) | further results
1 | Cc1cccc(O[C@H]2CCNC[C@H]2O)c1C | 8% | effective inhibitor of binding | 39% | 48% | 3% | 1% | effective inhibitor of binding | 4% | 6% | – | – | inhibition of binding to 5-HT2B receptors (in words) (human 5-HT2B receptor): effective inhibitor of binding
2 | Cc1cccc(O[C@H]2CCNC[C@H]2O)c1C.Cc1cccc(O[C@H]2CCNC[C@H]2O)c1C.O=S(=O)(O)O (relative stereo) [ifoxetine, (+/−)-bis-[cis-3-hydroxy-4-(2,3-dimethyl-phenoxy)]-piperidine sulfate] | – | – | – | – | – | – | – | – | – | – | – | interaction with 5-HT2 receptors (5-HT2 receptors [1]): weak or no interactions; interaction with beta-noradrenoceptors (beta-noradrenoceptors): weak or no interactions; activity at 5-HT2 receptors (5-HT2 receptors [2]; 10 μM of the racemate): minimal activity; interaction with 5-HT2 receptors (5-HT2 receptors [2]; in vitro): weak or no interactions; interaction with opiate receptors (opiate receptors): weak or no interactions; interaction with alpha1-noradrenoceptors (alpha1-noradrenoceptors): weak or no interactions; interaction with muscarinic acetylcholine receptors [3]: weak or no interactions; block of 5-HT reuptake in the brain [4]: specifically and selectively blocks; effect on 5-HT uptake processes in the periphery (blood platelets) [5]: without affecting; interaction with alpha2-noradrenoceptors (alpha2-noradrenoceptors): weak or no interactions; interaction with doparine receptors (doparine receptors): weak or no interactions; interaction with histamine H1 receptors (histamine H1 receptors): weak or no interactions; interaction with GABAA receptors (GABAA receptors): weak or no interactions; activity at 5-HT1 receptors (5-HT1 receptors; 10 μM of the racemate): minimal activity; interaction with 5-HT1 receptors (5-HT1 receptors; in vitro): weak or no interactions; interaction with benzodiazepine receptors (benzodiazepine receptors): weak or no interactions
3 | Cc1cccc(O[C@H]2CCNC[C@@H]2O)c1C | 5% | – | -8% | 6% | 4% | 22% | inhibits binding | 7% | 5% | inhibits binding | inhibits binding | –
4 | Cc1cccc(O[C@@H]2CCNC[C@H]2O)c1C | 0% | inhibits binding | 16% | 6% | -9% | 16% | – | -11% | 4% | – | inhibits binding | –
5 | Cc1cccc(O[C@@H]2CCNC[C@@H]2O)c1C | 15% | – | 9% | 6% | 8% | 6% | – | -17% | 11% | inhibits binding | – | inhibition of binding to 5-HT4c receptors (in words) (5-HT4C): inhibits binding; inhibition of binding to 5-HT3 receptors (in words) (5-HT3): inhibits binding
